Measured values: ChEMBL document CHEMBL1201862, “PubChem BioAssay data set” (2004)
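Test compounds were applied to cells in 96-well plates for 48 hours at 5 doses. GI50 is the concentration that inhibits growth by half.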 Activity calls are given as the source filed them. Rule as the data show it: active = GI50 up to about 1.1 µM and inactive = higher. Non-standard residues stand in square brackets, D forms with d. Residues, ends and D or L forms follow the SMILES beside them. ξ: configuration not given here. *: point of attachment. ξF = NC(Cc1ccccc1)C(=O)O; Cbz = O=C(OCc1ccccc1)*

Assays:
Assay in all cases: inhibition of tumour cell growth, NCI panel, 48 h
BT-549 = tested on: BT-549
DLD-1 = tested on: DLD-1
DMS-273 = tested on: DMS-273
HOP-18 = tested on: HOP-18
LXFL 529 = tested on: LXFL 529
M19-MEL = tested on: M19-MEL
SNB-78 = tested on: SNB-78
XF498 = tested on: XF498
RXF 631 = tested on: RXF 631

Cc1ccc(-n2cc(-c3ccc(Cl)cc3)c3c(NNC(=S)NCc4ccccc4)ncnc32)cc1
GI50 (BT-549): 17.9 µM (inactive)

COC(=O)C1=C([C@H]2COC(C)(C)O2)[C@H]2C[C@@H]1[C@@H]1OC(C)(C)O[C@@H]12
GI50 (BT-549): > 100 µM (inactive)

Clc1ccc(CCNC2(c3cc4ccccc4s3)CCCCC2)cc1Cl
GI50 (BT-549): 28.2 µM (inactive)

COc1nc(C#CC2CCCCC2)nc(OC)n1
GI50 (BT-549): 3.37 µM (inactive)

O=C1CC(C(=O)O)Cc2c(Br)ccc(O)c21 (stereo unspecified)
GI50 (BT-549): > 100 µM (inactive)

c1ccc2/c3[nH]/c(c2c1)=N\c1ccc(cc1)-c1nc2ccc(cc2o1)/N=c1/[nH]/c(c2ccccc12)=N/c1ccc2nc(oc2c1)-c1ccc(cc1)\N=3
GI50 (BT-549): > 100 µM (inactive)

COCOc1cc(OC)ccc1C/C=N/O
GI50 (BT-549): > 100 µM (inactive)

COC(=O)[C@@]12C(=O)CCC(=O)C1C1C(=CC2C)O[C@@H]2OC3(CCCCC3)O[C@H]12 (stereo partly specified)
GI50 (DLD-1): 58.3 µM (inactive)
GI50 (DMS-273): > 100 µM (inactive)
GI50 (HOP-18): > 64.3 µM (inactive)
GI50 (LXFL 529): 44.5 µM (inactive)
GI50 (M19-MEL): 61.9 µM (inactive)
GI50 (SNB-78): > 100 µM (inactive)
GI50 (XF498): > 38.4 µM (inactive)

N#CN=C(NCc1ccccc1)NCc1ccccc1
GI50 (DLD-1): > 47.4 µM (inactive)
GI50 (DMS-273): > 41.9 µM (inactive)
GI50 (HOP-18): > 100 µM (inactive)
GI50 (LXFL 529): > 92 µM (inactive)
GI50 (M19-MEL): > 54.7 µM (inactive)
GI50 (SNB-78): > 100 µM (inactive)
GI50 (XF498): > 77.1 µM (inactive)

Cc1nnc(CC#N)n1NC(=O)CC#N
GI50 (BT-549): > 100 µM (inactive)

O=C1C[C@@H]2[C@@H](CCC23CC3)N1
GI50 (DLD-1): > 100 µM (inactive)
GI50 (DMS-273): > 100 µM (inactive)
GI50 (HOP-18): > 100 µM (inactive)
GI50 (LXFL 529): > 100 µM (inactive)
GI50 (M19-MEL): > 100 µM (inactive)
GI50 (SNB-78): > 100 µM (inactive)

COC(=O)c1cc2c(cc1Cl)Sc1nnc(Nc3ccccc3)n1S2(=O)=O
GI50 (BT-549): 4.46 µM (inactive)

CCOC(=O)c1nc2ccc(C(F)(F)F)cc2nc1Nc1ccc(OC)cc1
GI50 (BT-549): 27.9 µM (inactive)

Cc1cc(O)c2c3c(ccc2c1)C(=O)c1c(O)cccc1C3=O [TETRANGULOL]
GI50 (BT-549): 55.5 µM (inactive)

NS(=O)(=O)c1ccc(NC(=O)Nc2ccccc2F)cc1
GI50 (BT-549): > 100 µM (inactive)

O=c1[nH]nc(Cc2ccccc2)n1N=C1CCCCC1
GI50 (BT-549): > 100 µM (inactive)

Cc1ccc2c(c1)nc1n2C(c2c(F)cccc2F)SC1 (stereo unspecified)
GI50 (BT-549): > 10 µM (inactive)

C=C1c2nc3ccccc3n2C=C(c2ccc(C)cc2)N1c1ccc(C)cc1
GI50 (BT-549): 51.6 µM (inactive)

O=C(O)CN1CCN2CCOCCOCCN(CC1)CCN(CC(=O)O)CC2
GI50 (BT-549): > 100 µM (inactive)

COc1cccc2c1N[S@](=O)S2
GI50 (DLD-1): 72.9 µM (inactive)
GI50 (DMS-273): > 100 µM (inactive)
GI50 (LXFL 529): 35.3 µM (inactive)
GI50 (M19-MEL): 35.6 µM (inactive)
GI50 (RXF 631): > 100 µM (inactive)
GI50 (SNB-78): > 100 µM (inactive)
GI50 (XF498): 50.8 µM (inactive)

O=C1C(Cl)=C(Oc2ccc([N+](=O)[O-])cc2)C(=O)c2c(O)ccc(O)c21
GI50 (BT-549): 49.3 µM (inactive)

CCC/N=C/c1c(O)c(O)c(C(C)C)c2cc(C)c(-c3c(C)cc4c(C(C)C)c(O)c(O)c(/C=N/CCC)c4c3O)c(O)c12
GI50 (LXFL 529): 3.73 µM (inactive)
GI50 (M19-MEL): 4.05 µM (inactive)
GI50 (SNB-78): 2.58 µM (inactive)

c1c[nH]c(CN2CCOCC2)n1
GI50 (BT-549): > 100 µM (inactive)

CC(C)N(C(=O)C12C3C4C5(C#N)C3C1(I)C5C42I)C(C)C (stereo unspecified)
GI50 (DLD-1): > 92.7 µM (inactive)
GI50 (DMS-273): > 57.7 µM (inactive)
GI50 (HOP-18): 97.5 µM (inactive)
GI50 (LXFL 529): > 71.6 µM (inactive)
GI50 (M19-MEL): > 58.2 µM (inactive)
GI50 (SNB-78): 67.9 µM (inactive)
GI50 (XF498): > 100 µM (inactive)

CN(C)/C=N/S(=O)(=O)c1nn2c(C=O)c(-c3ccc(Cl)cc3)nc2s1
GI50 (BT-549): 0.713 µM (active)

CCc1c(O)nc(Nc2nc3ccccc3[nH]2)[nH]c1=O
GI50 (BT-549): > 100 µM (inactive)

CCOC(=O)CNC(=O)C(Cc1ccccc1)NC(=O)OCc1ccccc1 (stereo unspecified) (Cbz-[ξF]-Gly-OEt)
GI50 (BT-549): > 100 µM (inactive)

Cc1ccccc1SC(/C=C/NNC1=NN=C(c2ccccc2)C(c2ccccc2)N1)c1ccccc1 (stereo unspecified)
GI50 (DLD-1): 37.5 µM (inactive)
GI50 (DMS-273): 35.7 µM (inactive)
GI50 (M19-MEL): 26 µM (inactive)
GI50 (SNB-78): 22 µM (inactive)
GI50 (XF498): 34.7 µM (inactive)

CCCCCCCCCCCC(=O)Oc1c(Cl)cc(Cl)c(OC(=O)C(=O)Oc2c(Cl)cc(Cl)c(OC(=O)CCCCCCCCCCC)c2Cl)c1Cl
GI50 (BT-549): > 100 µM (inactive)

CN(C)c1nc(N)nc(CCl)n1
GI50 (BT-549): 40 µM (inactive)

CC(C)=CCC[C@](C)(O[C@@H]1O[C@H](CO)[C@@H](O)[C@H](O)[C@H]1O)[C@H]1CC[C@]2(C)[C@@H]1[C@H](O)C[C@@H]1[C@@]3(C)CC[C@H](O)C(C)(C)[C@@H]3[C@@H](O[C@@H]3O[C@H](CO)[C@@H](O)[C@H](O)[C@H]3O[C@@H]3O[C@@H](C)[C@H](O)[C@@H](O)[C@H]3O)C[C@]12C.CC(C)=CCC[C@](C)(O[C@@H]1O[C@H](CO)[C@@H](O)[C@H](O)[C@H]1O)[C@H]1CC[C@]2(C)[C@@H]1[C@H](O)C[C@@H]1[C@@]3(C)CC[C@H](O)C(C)(C)[C@@H]3[C@@H](O[C@@H]3O[C@H](CO)[C@@H](O)[C@H](O)[C@H]3O[C@@H]3O[C@H](CO)[C@@H](O)[C@H](O)[C@H]3O)C[C@]12C
GI50 (BT-549): 28.2 µM (inactive)

O=C(COc1ccc(OCC(=O)N2C(=O)CN(c3ccc(Cl)cc3)C2=S)cc1)N1C(=O)CN(c2ccc(Cl)cc2)C1=S
GI50 (BT-549): 31.5 µM (inactive)

Nc1nc(NNc2ccccc2F)cc(=O)[nH]1
GI50 (BT-549): > 100 µM (inactive)

CCCOC(=O)C1CCC(=O)N1C(=O)C(Cl)Cl (stereo unspecified)
GI50 (DLD-1): > 100 µM (inactive)
GI50 (DMS-273): > 100 µM (inactive)
GI50 (HOP-18): > 100 µM (inactive)
GI50 (LXFL 529): > 100 µM (inactive)
GI50 (M19-MEL): > 100 µM (inactive)
GI50 (SNB-78): > 100 µM (inactive)
GI50 (XF498): > 100 µM (inactive)

CCC(=O)n1c(=O)n(-c2ccc([N+](=O)[O-])cc2)c(=O)n1C(=O)CC
GI50 (BT-549): > 100 µM (inactive)
